Measurements published in patent US8546085B2, “Methods of identifying modulators of the bitter taste receptor TAS2R44” (Givaudan SA, priority 2008, dated 2013).
Blank lines part the entries; values can stand above or below the compound they belong to. Peptide text beside a SMILES is read from it.

Tests used:
Assay type in all cases: cell-based
TAS2R44 [1] = biological target: T1, TAS2R44 (Homo sapiens, UniProt P59538, L162M); assay: Fluo-4 calcium assay, activation of TAS2R44 by agonists; details: for EC50: HEK293T cells stably expressing Gα16-gustducin44 and TAS2R44, nonlinear regression, read-out: calculated EC50 value for TAS2R44; for calcium signaling upon addition: cells stably expressing human TAS2R44
T1 construct: The full length gene of human TAS2R44 was amplified by polymerase chain reaction (PCR) using gene-specific primers that span the entire coding region; RSS tag (first 45 amino acids of rat somatostatin receptor subtype 3, plus EcoRI site) (N); expressed in transfected cells; host or cells: HEK293T/Galpha16-gustducin 44 cells, stably transfected with pcDNA3.1Zeo-TAS2R44
T1 sequence (P59538 with tags, fused parts or gaps L162M): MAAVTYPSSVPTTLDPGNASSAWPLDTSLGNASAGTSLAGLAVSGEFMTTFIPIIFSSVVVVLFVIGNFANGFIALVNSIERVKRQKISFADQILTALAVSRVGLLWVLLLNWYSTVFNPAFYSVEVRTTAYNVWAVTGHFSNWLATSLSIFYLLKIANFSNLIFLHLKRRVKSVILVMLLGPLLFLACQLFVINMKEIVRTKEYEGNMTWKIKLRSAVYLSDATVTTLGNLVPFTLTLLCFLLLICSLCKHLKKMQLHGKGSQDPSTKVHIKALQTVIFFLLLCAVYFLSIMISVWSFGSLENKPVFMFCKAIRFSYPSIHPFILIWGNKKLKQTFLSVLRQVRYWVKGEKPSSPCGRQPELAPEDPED
Experimental: Fluo-4AM (Invitrogen, Carlsbad, Calif., US) is a fluorescent indicator of intracellular calcium dynamics (change in concentration) and allows monitoring changes in the calcium concentration, particularly an increase in response to receptor activation occurring after agonist exposure.
At day 0, the HEK293T cell line expressing Gα16-gustducin44 and a TAS2R bitter taste receptor formed as described in examples 2b or 2c was seeded in antibiotic-free growth medium (standard DMEM with 10% (v/v) heat-inactivated fetal bovine serum, 2 mM L-glutamine[…]) into black wall/clear bottom 96-well plates, coated with poly(ethylenimine) (0.005% v/v) at a concentration of 15,000 cells per well and incubated for 48 hours in humidified atmosphere (37° C., 5% CO2).
At the time of the assay, the growth medium was discarded and the cells were in humidified atmosphere (37° C., 5% CO2) for 1 hour with 50 μl of loading buffer consisting of 1.5 μM Fluo-4 AM and […] probenicid (Sigma-Aldrich, St. Louis, Mo., US) in DMEM.
Afterwards, the 96-well plate was washed 5 times with 100 μl of assay buffer (130 mM NaCl, 5 mM KCl, 10 mM HEPES, 2 mM CaCl2, and 5 mM dextrose, pH 7.4) per well, using an automated plate washer (BioTek). The plate was further incubated for 30 minutes at room temperature in the dark to allow for complete de-esterification of the Fluo-4. Afterwards the plate was washed 5 times with 100 μl of assay buffer per well, and reconstituted with 100 μl of assay buffer per well.
For assay reading, the plate was placed in a Fluorometric Imaging Plate Reader (FLIPR) (FLIPR-TETRA™, Molecular Devices, Sunnyvale, Calif., US), and receptor activation was initiated by addition of 100 μl of a twofold concentrated agonist stock solution (to give the desired agonist end concentration when added to the 100 microliter assay buffer volume), which was prepared in assay buffer.
Fluorescence was continuously monitored for 20 seconds to give a signal baseline (averaged to give F0) prior to agonist addition and for 120 seconds after agonist addition. The change in signal divided by F0 gives ΔF/F0 indicated in the table, with ΔF being the maximum signal occurring within the 120 seconds minus the minimum signal (occurring within the 120 seconds after agonist addition.
All data was collected from at least two independent experiments each carried out in triplicate.
A concentration-response analysis was performed and EC50 values were calculated by nonlinear regression using the function f(x)=(a−d)/(1+(x/C)^nh)+d; with a=minimum signal, d=maximum signal, nh=hill coefficient, C=EC50. , and x=agonist concentration. EC50 is the molar concentration of an agonist which produces 50% of the maximum possible effective response for that agonist.
(§1) The obtained calcium signals were corrected for the response of cells expressing only the G Proteinα subunit (Gα16-gustducin44) and normalized to the fluorescence of cells prior to the stimulus using ΔF/F0 (Fmax−Fmin/F0).
To confirm that the cell line formed in example 2c stably expresses the bitter taste receptor TAS2R44, a concentration-response curve for saccharin, a known agonist of TAS2R44, was generated. […] The standard deviation (+/−STD) is also indicated.
The intracellular calcium response following addition of steviol glycosides (stevioside, rebaudioside A) was determined in HEK293T cell line stably expressing Gα16-gustducin44 and TAS2R44 formed as described in example 2a.

[2] = test system: HEK293T Gα16gustducin44 cells (that do not express TAS2R44); assay: Fluo-4 calcium assay, negative control cells without TAS2R44; details: for change in signal in the negative control: cells expressing only Gα16-gustducin44
Source text: as §1
As a negative control to determine unspecific signals, each of the applied concentrations of each F(I) steviol glycoside was applied to cells expressing only Gα16gustducin44.

TAS2R44 [3] = biological target: T1, TAS2R44; assay: Fluo-4 calcium assay, antagonists of the response of TAS2R44 to steviol glycosides; details: without bitter blocker
Experimental: All cells were HEK293T cells stably expressing Gα16-gustducin44, or expressing Gα16-gustducin44 and TAS2R44.
The method was carried out as described in example 3 subject to the following modifications:
The samples were tested with and without candidate bitter blocker and the signals were compared. The candidate bitter blocker was dissolved in dimethylsulfoxide (DMSO), and a negative control with equivalent DMSO concentration (0.02%) was performed accordingly to exclude a potential inhibitory effect of the solvent. Furthermore, a control with the relevant steviol glycoside and DMSO (0.02%) was performed accordingly (see table in example 5).
All data was calculated as ΔF/F0 and the standard deviation (STD) is indicated in each table, see results for the identified bitter blocker 4-(2,2,3-trimethyl-cyclopentyl)-butanoic acid below.

- agonist for TAS2R44 (TAS2R44 [1]; sweeteners with a known bitter off-note): not to be agonists
SMILES: COC(=O)[C@H](Cc1ccccc1)NC(=O)[C@@H](N)CC(=O)O [aspartame] (H-Asp-Phe-OMe)

- EC50 (TAS2R44 [1]): 700 µM
- calcium signaling upon addition (TAS2R44 [1]): significant increase
- TAS2R44 ΔF/F0 (TAS2R44 [1]; rebaudioside A 0.004 mM): 0.07687
- TAS2R44 ΔF/F0 (TAS2R44 [1]; rebaudioside A 0.008 mM): 0.07938
- TAS2R44 ΔF/F0 (TAS2R44 [1]; rebaudioside A 0.016 mM): 0.0975
- TAS2R44 ΔF/F0 (TAS2R44 [1]; rebaudioside A 0.031 mM): 0.1681
- TAS2R44 ΔF/F0 (TAS2R44 [1]; rebaudioside A 0.063 mM): 0.1619
- TAS2R44 ΔF/F0 (TAS2R44 [1]; rebaudioside A 0.125 mM): 0.32
- TAS2R44 ΔF/F0 (TAS2R44 [1]; rebaudioside A 0.625 mM): 0.7025
- TAS2R44 ΔF/F0 (TAS2R44 [1]; rebaudioside A 2.500 mM): 0.7819
- TAS2R44 ΔF/F0 (TAS2R44 [1]; rebaudioside A 5.000 mM): 0.6262
- rebaudioside positive control average ΔF/F0 (TAS2R44 [3]; 0.7 mM rebaudioside A (EC50) alone): 0.4625
SMILES: C=C1C[C@@]23CC[C@H]4[C@@](C)(CCC[C@@]4(C)C(=O)O[C@@H]4O[C@H](CO)[C@@H](O)[C@H](O)[C@H]4O)[C@@H]2CC[C@]1(O[C@@H]1O[C@H](CO)[C@@H](O)[C@H](O[C@@H]2O[C@H](CO)[C@@H](O)[C@H](O)[C@H]2O)[C@H]1O[C@@H]1O[C@H](CO)[C@@H](O)[C@H](O)[C@H]1O)C3 [rebaudioside A]
- change in signal in the negative control [2]: No significant change
- Neg. Control ΔF/F0 ([2]; rebaudioside A 0.004 mM): 0.061
- Neg. Control ΔF/F0 ([2]; rebaudioside A 0.008 mM): 0.0635
- Neg. Control ΔF/F0 ([2]; rebaudioside A 0.016 mM): 0.054
- Neg. Control ΔF/F0 ([2]; rebaudioside A 0.031 mM): 0.063
- Neg. Control ΔF/F0 ([2]; rebaudioside A 0.063 mM): 0.0685
- Neg. Control ΔF/F0 ([2]; rebaudioside A 0.125 mM): 0.087
- Neg. Control ΔF/F0 ([2]; rebaudioside A 0.625 mM): 0.1115
- Neg. Control ΔF/F0 ([2]; rebaudioside A 2.500 mM): 0.153
- Neg. Control ΔF/F0 ([2]; rebaudioside A 5.000 mM): 0.208

- TAS2R44 ΔF/F0 (TAS2R44 [1]; saccharin 0.0391 mM): 0.024
- TAS2R44 ΔF/F0 (TAS2R44 [1]; saccharin 0.0781 mM): 0.075
- TAS2R44 ΔF/F0 (TAS2R44 [1]; saccharin 0.1563 mM): 0.181
- TAS2R44 ΔF/F0 (TAS2R44 [1]; saccharin 0.3125 mM): 0.388
- TAS2R44 ΔF/F0 (TAS2R44 [1]; saccharin 0.6250 mM): 0.668
- TAS2R44 ΔF/F0 (TAS2R44 [1]; saccharin 1.2500 mM): 0.947
- TAS2R44 ΔF/F0 (TAS2R44 [1]; saccharin 2.5000 mM): 1.150
- TAS2R44 ΔF/F0 (TAS2R44 [1]; saccharin 5.0000 mM): 1.258
- TAS2R44 ΔF/F0 (TAS2R44 [1]; saccharin 10.0000 mM): 1.354
SMILES: O=C1NS(=O)(=O)c2ccccc21 [saccharin]
- change in signal in the negative control [2]: did not show any significant change in signal
- Neg. Control ΔF/F0 ([2]; saccharin 10.0000 mM): 0.020

- EC50 (TAS2R44 [1]): 2200 µM
- calcium signaling upon addition (TAS2R44 [1]): significant increase
- TAS2R44 ΔF/F0 (TAS2R44 [1]; stevioside 0.004 mM): 0.082
- TAS2R44 ΔF/F0 (TAS2R44 [1]; stevioside 0.008 mM): 0.079
- TAS2R44 ΔF/F0 (TAS2R44 [1]; stevioside 0.016 mM): 0.096
- TAS2R44 ΔF/F0 (TAS2R44 [1]; stevioside 0.031 mM): 0.112
- TAS2R44 ΔF/F0 (TAS2R44 [1]; stevioside 0.063 mM): 0.136
- TAS2R44 ΔF/F0 (TAS2R44 [1]; stevioside 0.125 mM): 0.230
- TAS2R44 ΔF/F0 (TAS2R44 [1]; stevioside 0.625 mM): 0.451
- TAS2R44 ΔF/F0 (TAS2R44 [1]; stevioside 2.500 mM): 0.677
- TAS2R44 ΔF/F0 (TAS2R44 [1]; stevioside 5.000 mM): 1.155
- stevioside positive control average ΔF/F0 (TAS2R44 [3]; 2.2 mM stevioside (EC50) alone): 0.733
SMILES: C=C1C[C@@]23CC[C@H]4[C@@](C)(CCC[C@@]4(C)C(=O)O[C@@H]4O[C@H](CO)[C@@H](O)[C@H](O)[C@H]4O)[C@@H]2CC[C@]1(O[C@@H]1O[C@H](CO)[C@@H](O)[C@H](O)[C@H]1O[C@@H]1O[C@H](CO)[C@@H](O)[C@H](O)[C@H]1O)C3 [stevioside]
- change in signal in the negative control [2]: No significant change
- Neg. Control ΔF/F0 ([2]; stevioside 0.004 mM): 0.061
- Neg. Control ΔF/F0 ([2]; stevioside 0.008 mM): 0.059
- Neg. Control ΔF/F0 ([2]; stevioside 0.016 mM): 0.059
- Neg. Control ΔF/F0 ([2]; stevioside 0.031 mM): 0.074
- Neg. Control ΔF/F0 ([2]; stevioside 0.063 mM): 0.065
- Neg. Control ΔF/F0 ([2]; stevioside 0.125 mM): 0.063
- Neg. Control ΔF/F0 ([2]; stevioside 0.625 mM): 0.062
- Neg. Control ΔF/F0 ([2]; stevioside 2.500 mM): 0.010
- Neg. Control ΔF/F0 ([2]; stevioside 5.000 mM): 0.435
